Measurements taken from patent US20060025344A1, “Ghrelin receptor inverse agonists for regulation of feeding behaviors” (7TM Pharma A/S, priority 2002, published 2006).
“Also recorded” adds a separate entry of the source. Non-standard residues stand in square brackets, D forms with d. Residues, ends and D or L forms follow the SMILES beside them.

Tests used:
human ghrelin receptor = human ghrelin receptor (Homo sapiens, UniProt Q92847); experiment: Inverse agonism on basal, constitutive signalling measured by inositol phosphate turnover in transiently transfected COS-7 cells; assay type: cell-based; settings: wild-type ghrelin receptor; for IC50: IP turnover
Chain of human ghrelin receptor (Q92847 whole entry): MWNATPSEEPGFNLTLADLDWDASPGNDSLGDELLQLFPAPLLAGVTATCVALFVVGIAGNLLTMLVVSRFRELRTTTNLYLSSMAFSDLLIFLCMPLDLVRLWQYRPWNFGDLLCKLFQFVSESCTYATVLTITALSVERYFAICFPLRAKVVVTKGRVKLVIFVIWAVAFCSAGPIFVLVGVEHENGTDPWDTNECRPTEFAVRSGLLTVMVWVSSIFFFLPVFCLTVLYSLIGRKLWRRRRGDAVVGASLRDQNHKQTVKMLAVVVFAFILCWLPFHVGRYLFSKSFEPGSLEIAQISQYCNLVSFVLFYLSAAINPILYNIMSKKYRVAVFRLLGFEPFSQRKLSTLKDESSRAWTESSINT
Method: Cells were transfected with Lipofectamine 2000 (Life Technologies).
(§1) Cells were washed twice in buffer, 20 mM HEPES, pH 7.4, supplemented with 140 mM NaCl, 5 mM KCl, 1 mM MgSO4, 1 mM CaCl2, 10 mM glucose, 0.05% (w/v) bovine serum; and were incubated in 0.5 ml buffer supplemented with 10 mM LiCl at 37 °C. for 30 min. […] Determinations were made in duplicates.

[1] = molecular target: metal-ion site engineered ghrelin receptor (V:01 and V:05 substituted with His) (Homo sapiens, UniProt Q92847, L209H/M213H); experiment: Inverse agonism on basal inositol phosphate turnover in the metal-ion site engineered receptor; assay type: cell-based
Chain of metal-ion site engineered ghrelin receptor (V:01 and V:05 substituted with His) (Q92847 whole entry L209H/M213H): as the sequence (Q92847 whole entry) above, with L209H, M213H counted along it
Method: as §1
Metal-ion site engineering has previously been used as a molecular probe for both antagonism, agonism and inverse agonism (Elling et al., 1995; Elling et al., 1999; Rosenkilde et al., 1999). Here we built a metal-ion binding site into the ghrelin receptor by substituting residues V:01 and V:05 with His residues. 125 l-ghrelin bound with normal high affinity to the metal-ion site engineered receptor and ghrelin could stimulate IP turnover with a potency and efficacy as in the wild-type receptor (data not shown). […] A similar result has been obtained in the HHV8 encoded constitutively active ORF-74 receptor (Rosenkilde et al., 1999). […] This is important for the invention since the invention is aimed at small molecule, preferentially non-peptide compounds which will serve as inverse agonists against the receptor and most of these will conceivably as the majority of small molecule drugs in general in 7TM G protein coupled receptor bind in between the extracellular ends of the transmembrane segments.

[2] = tested on: lean mice, mice with diet induced obesity, ob/ob obese mice; settings: cited from earlier work
bombesin receptor 1 = settings: according to the literature; cited from earlier work
NK1 receptor = NK1 receptor (Homo sapiens, UniProt P25103); experiment: Block of SP induced accumulation of IP in COS-7 cells transiently transfected with the NK1 receptor; assay type: cell-based; settings: data not shown
Chain of NK1 receptor (P25103 whole entry, species assumed): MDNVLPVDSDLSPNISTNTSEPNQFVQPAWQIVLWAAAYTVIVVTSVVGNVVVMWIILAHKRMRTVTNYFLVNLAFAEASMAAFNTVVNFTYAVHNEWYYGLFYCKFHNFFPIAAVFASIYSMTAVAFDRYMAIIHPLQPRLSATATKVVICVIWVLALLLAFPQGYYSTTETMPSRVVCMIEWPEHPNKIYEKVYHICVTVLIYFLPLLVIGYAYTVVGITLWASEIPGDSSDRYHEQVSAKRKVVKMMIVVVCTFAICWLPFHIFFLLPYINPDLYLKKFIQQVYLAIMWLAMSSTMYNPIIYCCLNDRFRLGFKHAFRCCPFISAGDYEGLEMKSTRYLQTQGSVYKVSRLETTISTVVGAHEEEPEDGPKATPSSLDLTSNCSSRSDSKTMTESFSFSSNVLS

Compound | IC50 (human ghrelin receptor) [µM] | efficacy as inverse agonist (in words) (human ghrelin receptor; absence of ghrelin) | IC50 ([1]; metal ion site engineered receptor, IP turnover, read-out: IC50 for inverse agonism on basal, constitutive signalling) [µM] | efficacy as inverse agonist (in words) ([1]; metal-ion site engineered receptor) | energy intake / food intake ([2]; lean mice, diet induced obesity mice, ob/ob obese mice, repeated administrations for six days) | rate of gastric emptying ([2]; mice) | body weight gain ([2]; repeated administrations, obese ob/ob mice (normal and obese mice)) | glycaemic control ([2]; repeated administrations, obese ob/ob mice) | antagonist potency on the bombesin receptor (in words) (bombesin receptor 1) | antagonist potency on the NK1 receptor (in words) (NK1 receptor)
O=C(O)CCc1ccc(-c2ccc(Br)cc2)n1-c1cccc(C(F)(F)F)c1 [TM27810, 3-[5-(4-Bromo-phenyl)-1-(3-trifluoromethyl-phenyl)-1H-pyrrol-2-yl]-propionic acid] | 6.5 | high efficacy inverse agonist; also recorded: efficiently decreases the constitutive signalling activity | – | – | – | – | – | – | – | –
[Zn+2] [Zn(II)] | 160 ± 70 | – | 4.3 ± 0.2 | full inverse agonist | – | – | – | – | – | –
CC(C)C[C@H](NC(=O)[C@H](CC(C)C)NC(=O)[C@@H](Cc1c[nH]c2ccccc12)NC(=O)[C@H](Cc1ccccc1)NC(=O)[C@@H](Cc1c[nH]c2ccccc12)NC(=O)[C@H](CCC(N)=O)NC(=O)[C@@H](Cc1ccccc1)NC(=O)[C@@H]1CCCN1C(=O)[C@H](CCCCN)NC(=O)[C@@H]1CCCN1C(=O)[C@H](N)CCCNC(=N)N)C(N)=O [[D-Arg^1, D-Phe^5, D-Trp^7,9, Leu^11]-Substance P] (H-[dR]PKP[dF]Q[dW]F[dW]LL-NH2; N-terminus and C-terminus assumed) | – | – | – | – | decreased | reduced | decreased | improved | micromolar antagonist | micromolar antagonist; also recorded: at micromolar concentrations also has effects
